Test results from patent publication US5593984A, “Cephalosporin derivatives” (Yuhan Corporation, priority 1992, dated 1997).
Converted amounts (≈) assume the structure as drawn.

Tests used:
Assay type in all cases: cell-based
[1] = test system: M. morganii DY-1; experiment: MIC by agar dilution, M. morganii DY-1; conditions: Morganella morganii, DY1, 17 h; M. morganii DY-1; agar dilution, Mueller-Hinton agar; read-out: Minimal Inhibitory Concentration (MIC)
Procedure, shortened: (§1)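 Minimum inhibitory concentrations come from Mueller-Hinton agar plates with two-fold compound steps, inoculated at 10^6 CFU per ml and incubated 17±1 hours at 35°-37° C.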

[2] = test system: Staph. aureus C-57; experiment: MIC by agar dilution, Staph. aureus C-57; conditions: Staphylococcus aureus, C57, 17 h, Mueller-Hinton agar, read-out: Minimal Inhibitory Concentration (MIC)
Procedure, shortened: as §1

[3] = test system: Prov. stuartii IFO 12930; experiment: MIC by agar dilution, Prov. stuartii IFO 12930; conditions: Providencia stuartii, IFO12930, 17 h, Mueller-Hinton agar, read-out: Minimal Inhibitory Concentration (MIC)
Procedure, shortened: as §1

[4] = test system: Ent. cloacae IFO 13535; experiment: MIC by agar dilution, Ent. cloacae IFO 13535; conditions: Enterobacter cloacae, IFO13535, 17 h; Ent. cloacae IFO 13535; agar dilution, Mueller-Hinton agar; read-out: Minimal Inhibitory Concentration (MIC)
Procedure, shortened: as §1

[5] = test system: P. vulgaris NCTC 8313; experiment: MIC by agar dilution, P. vulgaris NCTC 8313; conditions: Proteus vulgaris, NCTC8313, 17 h; P. vulgaris NCTC 8313; agar dilution, Mueller-Hinton agar; read-out: Minimal Inhibitory Concentration (MIC)
Procedure, shortened: as §1

[6] = test system: E. coli No. 29; experiment: MIC by agar dilution, E. coli No. 29; conditions: Escherichia coli, 17 h; E. coli No. 29; agar dilution, Mueller-Hinton agar; read-out: Minimal Inhibitory Concentration (MIC)
Procedure, shortened: as §1

[7] = test system: Staph. aureus C-5113; experiment: MIC by agar dilution, Staph. aureus C-5113; conditions: Staphylococcus aureus, C5113, 17 h, Mueller-Hinton agar, read-out: Minimal Inhibitory Concentration (MIC)
Procedure, shortened: as §1

[8] = test system: Ser. marcescens IFO 12648; experiment: MIC by agar dilution, Ser. marcescens IFO 12648; conditions: Serratia marcescens, IFO12648, 17 h; Ser. marcescens IFO 12648; agar dilution, Mueller-Hinton agar; read-out: Minimal Inhibitory Concentration (MIC)
Procedure, shortened: as §1

[9] = test system: K. pneumoniae NCTC 9632; experiment: MIC by agar dilution, K. pneumoniae NCTC 9632; conditions: Klebsiella pneumoniae, NCTC9632, 17 h; K. pneumoniae NCTC 9632; agar dilution, Mueller-Hinton agar; read-out: Minimal Inhibitory Concentration (MIC)
Procedure, shortened: as §1

[10] = test system: B. subtilis ATCC 6633; experiment: MIC by agar dilution, B. subtilis ATCC 6633; conditions: Bacillus subtilis, ATCC6633, 17 h; B. subtilis ATCC 6633; agar dilution, Mueller-Hinton agar; read-out: Minimal Inhibitory Concentration (MIC)
Procedure, shortened: as §1

[11] = test system: Staph. aureus ATCC 6538P; experiment: MIC by agar dilution, Staph. aureus ATCC 6538P; conditions: Staphylococcus aureus, ATCC6538P, 17 h; Staph. aureus ATCC 6538P; agar dilution, Mueller-Hinton agar; read-out: Minimal Inhibitory Concentration (MIC)
Procedure, shortened: as §1

[12] = test system: Ent. aerogenes IFO 12979; experiment: MIC by agar dilution, Ent. aerogenes IFO 12979; conditions: Klebsiella aerogenes, IFO12979, 17 h, Mueller-Hinton agar, read-out: Minimal Inhibitory Concentration (MIC)
Procedure, shortened: as §1

[13] = test system: Staph. aureus C-5216; experiment: MIC by agar dilution, Staph. aureus C-5216; conditions: Staphylococcus aureus, C5216, 17 h, Mueller-Hinton agar, read-out: Minimal Inhibitory Concentration (MIC)
Procedure, shortened: as §1

[14] = test system: E. coli NIHJ JC-2; experiment: MIC by agar dilution, E. coli NIHJ JC-2; conditions: Escherichia coli, NIHJJC2, 17 h; E. coli NIHJ JC-2; agar dilution, Mueller-Hinton agar; read-out: Minimal Inhibitory Concentration (MIC)
Procedure, shortened: as §1

[15] = test system: Ps. aeruginosa NCTC 10490; experiment: MIC by agar dilution, Ps. aeruginosa NCTC 10490; conditions: Pseudomonas aeruginosa, NCTC10490, 17 h, Mueller-Hinton agar, read-out: Minimal Inhibitory Concentration (MIC)
Procedure, shortened: as §1

[16] = test system: Ps. aeruginosa ATCC 10145; experiment: MIC by agar dilution, Ps. aeruginosa ATCC 10145; conditions: Pseudomonas aeruginosa, ATCC10145, 17 h, Mueller-Hinton agar, read-out: Minimal Inhibitory Concentration (MIC)
Procedure, shortened: as §1

[17] = test system: S. epidermidis ATCC 12228; experiment: MIC by agar dilution, S. epidermidis ATCC 12228; conditions: Staphylococcus epidermidis, ATCC12228, 17 h; S. epidermidis ATCC 12228; agar dilution, Mueller-Hinton agar; read-out: Minimal Inhibitory Concentration (MIC)
Procedure, shortened: as §1

[18] = test system: E. coli DY-1; experiment: MIC by agar dilution, E. coli DY-1; conditions: Escherichia coli, DY1, 17 h; E. coli DY-1; agar dilution, Mueller-Hinton agar; read-out: Minimal Inhibitory Concentration (MIC)
Procedure, shortened: as §1

[19] = test system: Ps. aeruginosa DY-2; experiment: MIC by agar dilution, Ps. aeruginosa DY-2; conditions: Pseudomonas aeruginosa, DY2, 17 h; Ps. aeruginosa DY-2; agar dilution, Mueller-Hinton agar; read-out: Minimal Inhibitory Concentration (MIC)
Procedure, shortened: as §1

[20] = test system: Staph. aureus Smith; experiment: MIC by agar dilution, Staph. aureus Smith; conditions: Staphylococcus aureus, 17 h, Mueller-Hinton agar, read-out: Minimal Inhibitory Concentration (MIC)
Procedure, shortened: as §1

SMILES	MIC [1] [µg/mL]	MIC [2] [µg/mL]	MIC [3] [µg/mL]	MIC [4] [µg/mL]	MIC [5] [µg/mL]	MIC [6] [µg/mL]	MIC [7] [µg/mL]	MIC [8] [µg/mL]	MIC [9] [µg/mL]	MIC [10] [µg/mL]	MIC [11] [µg/mL]	MIC [12] [µg/mL]	MIC [13] [µg/mL]	MIC [14] [µg/mL]	MIC [15] [µg/mL]	MIC [16] [µg/mL]	MIC [17] [µg/mL]	MIC [18] [µg/mL]	MIC [19] [µg/mL]	MIC [20] [µg/mL]
CCON=C(C(=O)NC1C(=O)N2C(C(=O)[O-])=C(C[n+]3ccn4ccc(CO)c4c3)CSC12)c1csc(N)n1 (stereo not drawn) [Ex. 31, 7-β-[(Z)-2-(2-aminothiazol-4-yl)2-ethoxyiminoacetamido]-3-(8-hydroxymethylpyrrolo[1,2-a]pyrazinium-2-yl)methyl-3-cephem-4-carboxylate]	0.025 (≈ 0.0448 µM)	25 (≈ 44.8 µM)	0.025 (≈ 0.0448 µM)	0.2 (≈ 0.359 µM)	0.012 (≈ 0.0215 µM)	0.012 (≈ 0.0215 µM)	6.25 (≈ 11.2 µM)	0.05 (≈ 0.0897 µM)	0.05 (≈ 0.0897 µM)	0.1 (≈ 0.179 µM)	0.2 (≈ 0.359 µM)	0.025 (≈ 0.0448 µM)	3.13 (≈ 5.61 µM)	0.05 (≈ 0.0897 µM)	0.78 (≈ 1.4 µM)	1.56 (≈ 2.8 µM)	0.2 (≈ 0.359 µM)	≤ 0.006	3.13 (≈ 5.61 µM)	1.56 (≈ 2.8 µM)
Nc1nc(/C(=N/OCF)C(=O)N[C@@H]2C(=O)N3C(C(=O)[O-])=C(C[n+]4ccn5ccc(CO)c5c4)CS[C@H]23)cs1 [Ex. 32, 7-β-[(Z)-2-(2-aminothiazol-4-yl)2-fluoromethoxyiminoacetamido]-3-(8-hydroxymethylpyrrolo[1,2-a]pyrazinium-2-yl)methyl-3-cephem-4-carboxylate]	0.025 (≈ 0.0445 µM)	25 (≈ 44.5 µM)	0.012 (≈ 0.0214 µM)	0.1 (≈ 0.178 µM)	0.012 (≈ 0.0214 µM)	≤ 0.006	3.13 (≈ 5.57 µM)	0.05 (≈ 0.089 µM)	0.025 (≈ 0.0445 µM)	0.1 (≈ 0.178 µM)	0.2 (≈ 0.356 µM)	0.025 (≈ 0.0445 µM)	1.56 (≈ 2.78 µM)	≤ 0.006	0.2 (≈ 0.356 µM)	0.78 (≈ 1.39 µM)	0.1 (≈ 0.178 µM)	≤ 0.006	3.13 (≈ 5.57 µM)	0.78 (≈ 1.39 µM)
CO/N=C(\C(=O)N[C@@H]1C(=O)N2C(C(=O)[O-])=C(C[n+]3ccn4ccc(Cl)c4c3)CS[C@H]12)c1csc(N)n1 [Ex. 33, 7-β-[(Z)-2-(2-aminothiazol-4-yl)2-methoxyiminoacetamido]-3-(8-chloropyrrolo[1,2-a]pyrazinium-2-yl)methyl-3-cephem-4-carboxylate]	≤ 0.006	25 (≈ 45.6 µM)	≤ 0.006	0.05 (≈ 0.0912 µM)	≤ 0.006	≤ 0.006	0.78 (≈ 1.42 µM)	0.012 (≈ 0.0219 µM)	0.012 (≈ 0.0219 µM)	0.2 (≈ 0.365 µM)	0.2 (≈ 0.365 µM)	0.025 (≈ 0.0456 µM)	0.2 (≈ 0.365 µM)	0.012 (≈ 0.0219 µM)	0.2 (≈ 0.365 µM)	0.78 (≈ 1.42 µM)	0.05 (≈ 0.0912 µM)	≤ 0.006	1.56 (≈ 2.85 µM)	0.2 (≈ 0.365 µM)
CO/N=C(\C(=O)N[C@@H]1C(=O)N2C(C(=O)[O-])=C(C[n+]3ccn4c(C(C)=O)cc(Cl)c4c3)CS[C@H]12)c1csc(N)n1 [Ex. 34, 7-β-[(Z)-2-(2-aminothiazol-4-yl)2-methoxyiminoacetamido]-3-(6-acetyl-8-chloropyrrolo[1,2-a]pyrazinium-2-yl)methyl-3-cephem-4-carboxylate]	0.05 (≈ 0.0847 µM)	25 (≈ 42.4 µM)	0.025 (≈ 0.0424 µM)	0.1 (≈ 0.169 µM)	0.012 (≈ 0.0203 µM)	0.025 (≈ 0.0424 µM)	0.78 (≈ 1.32 µM)	0.05 (≈ 0.0847 µM)	0.025 (≈ 0.0424 µM)	0.39 (≈ 0.661 µM)	0.78 (≈ 1.32 µM)	0.025 (≈ 0.0424 µM)	0.78 (≈ 1.32 µM)	0.05 (≈ 0.0847 µM)	3.13 (≈ 5.3 µM)	6.25 (≈ 10.6 µM)	0.1 (≈ 0.169 µM)	0.025 (≈ 0.0424 µM)	25 (≈ 42.4 µM)	1.56 (≈ 2.64 µM)
